Consider 14 molecules from patent publication US20030162777A1, “Novel N-acylated heterocycles” (Recordati S.A., priority 2001, published 2003).

For the assay, the target named is T1, human 5HT1A-serotonergic receptor (Homo sapiens, UniProt P08908).
T1 construct: expressed in transfected cells; host or cells: HeLa (human cell line), stably transfected; cell membranes used
T1 sequence (P08908 1-422): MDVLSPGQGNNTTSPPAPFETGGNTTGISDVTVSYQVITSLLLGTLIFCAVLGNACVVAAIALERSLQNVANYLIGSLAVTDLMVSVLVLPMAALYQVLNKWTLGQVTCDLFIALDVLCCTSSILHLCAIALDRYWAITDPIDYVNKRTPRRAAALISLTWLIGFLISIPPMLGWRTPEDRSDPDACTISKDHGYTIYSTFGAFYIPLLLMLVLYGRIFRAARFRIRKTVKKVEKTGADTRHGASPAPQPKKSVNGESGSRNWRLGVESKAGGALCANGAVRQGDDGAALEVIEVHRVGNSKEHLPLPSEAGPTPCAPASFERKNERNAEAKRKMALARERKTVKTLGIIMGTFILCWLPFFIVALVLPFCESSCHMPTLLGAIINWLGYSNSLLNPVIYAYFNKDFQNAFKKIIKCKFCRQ
Nature of the assay: Radioligand binding to recombinant 5-HT1A receptors. The note with it: [3H]8-OH-DPAT 1 nM, membranes of HeLa cells with human 5-HT1A receptor; Ki from IC50 by Cheng & Prusoff; read-out: Binding affinity for 5HT1A receptors, Ki. Put shortly: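 Membranes from HeLa cells stably expressing human 5-HT1A incubated 30 min at 30 °C with 1 nM [3H]8-OH-DPAT and compound in 50 mM Tris-HCl pH 7.4, 2.5 mM MgCl2, […] pargyline. Nonspecific binding defined with 10 μM 5-HT; filtration readout, IC50 converted to Ki via Cheng–Prusoff.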

For orientation: Ki means the equilibrium dissociation constant of an inhibitor or competing ligand from its target. `O=C(C1CCCCC1)N1c2ccccc2CCC1CN1CCC(c2ccccc2F)CC1` (centres unmarked) [Example 72A40, 1-(1-Cyclohexanecarbonyl-1,2,3,4-tetrahydroquinolin-2-!ylmethyl)-4-(2-fluorophenyl)piperidine]: the Ki was found to be 19.8 nM.
For the molecule `O=C(C1CCCCC1)N1c2ccccc2CCC1CN1CCC(c2cccc(Cl)c2Cl)CC1` (centres unmarked) [Example 72A51, 1-(1-Cyclohexanecarbonyl-1,2,3,4-tetrahydroquinolin-2-ylmethyl)-4-(2,3-dichlorophenyl)piperidine], the Ki stood at 15 nM.
`O=C(C1CCCCC1)N1c2ccccc2CCC1CN1CCC(c2c(F)cccc2Cl)CC1` (centres unmarked) [Example 72A53, 4-(2-Chloro-6-fluorophenyl)-1-(1-cyclohexanecarbonyl-1,2,3,4-tetrahydroquinolin-2-ylmethyl)piperidine]: the Ki was 6.1 nM.
As for `Cc1ccccc1C1CCN(CC2CCc3ccccc3N2C(=O)C2CCCCC2)CC1` (centres unmarked) [Example 72A56, 1-(1-Cyclohexanecarbonyl-1,2,3,4-tetrahydroquinolin-2-ylmethyl)-4-(2-methylphenyl)piperidine], the figure is 10.1 nM.
With `Cc1c(F)cccc1C1CCN(CC2CCc3ccccc3N2C(=O)C2CCCCC2)CC1` (centres unmarked) [Example 72A57, 1-(1-Cyclohexanecarbonyl-1,2,3,4-tetrahydroquinolin-2-ylmethyl)-4-(3-fluoro-2-methylphenyl)piperidine], the Ki was found to be 6.4 nM.
With `O=C(C1CCCCC1)N1c2ccccc2CCC1CN1CCN(c2cccc(Cl)n2)CC1` (centres unmarked) [Example 72A65, 1-(1-Cyclohexanecarbonyl-1,2,3,4-tetrahydroquinolin-2-ylmethyl)-4-(6-chloropyridin-2-yl)piperazine], the Ki was found to be 15.5 nM.
Take `O=C(C1CCCCC1)N1c2ccccc2CCC1CN1CCN(c2c(Cl)cncc2Cl)CC1` (centres unmarked) [Example 72A66, 1-(1-Cyclohexanecarbonyl-1,2,3,4-tetrahydroquinolin-2-ylmethyl)-4-(3,5-dichloropyridin-4-yl)piperazine]: the Ki was 10.2 nM.
As for `O=C(C1CCCCC1)N1c2ccccc2CCC1CN1CCC(c2cccc(Cl)c2)CC1` (centres unmarked) [Example 72A68, 4-(3-Chlorophenyl)-1-(1-cyclohexanecarbonyl-1,2,3,4-tetrahydroquinolin-2-ylmethyl)piperidine], the figure is 38.6 nM; as for `O=C(C1CCCCC1)N1c2ccccc2CCC1CN1CCC(c2ccccc2Cl)CC1` (centres unmarked) [Example 72A69, 4-(2-Chlorophenyl)-1-(1-cyclohexanecarbonyl-1,2,3,4-tetrahydroquinolin-2-ylmethyl)piperidine], 3.9 nM.
As for `O=C(C1CCCCC1)N1c2ccccc2CCC1CN1CCC(c2ccccc2C(F)(F)F)CC1` (centres unmarked) [Example 72A81, 1-(1-Cyclohexanecarbonyl-1,2,3,4-tetrahydroquinolin-2-ylmethyl)-4-(2-trifluoromethylphenyl)piperidine], the figure is 25.5 nM.
As for `CN(CCOc1ccccc1Cl)CC1CCc2ccccc2N1C(=O)C1CCCCC1` (centres unmarked) [Example 72A84, N-(1-Cyclohexanecarbonyl-1,2,3,4-tetrahydroquinolin-2-ylmethyl)-2-(2-chlorophenoxy)ethylmethylamine], the figure is 15.7 nM; as for `CN(CCOc1ccccc1OCC(F)(F)F)CC1CCc2ccccc2N1C(=O)C1CCCCC1` (centres unmarked) [Example 72A85, N-(1-Cyclohexanecarbonyl-1,2,3,4-tetrahydroquinolin-2-ylmethyl)-2-[2-(2,2,2-trifluoroethoxy)phenoxy]ethylmethylamine], 3.6 nM.
On to `CN(CCOc1cccc2[nH]ccc12)CC1CCc2ccccc2N1C(=O)C1CCCCC1` (centres unmarked) [Example 72A86, N-(1-Cyclohexanecarbonyl-1,2,3,4-tetrahydroquinolin-2-ylmethyl)-2-[4-(1H)-indolyloxy]ethylmethylamine], for which the Ki stood at 4.3 nM.
As for `CN(CCOc1cccc2cccnc12)CC1CCc2ccccc2N1C(=O)C1CCCCC1` (centres unmarked) [Example 72A87, N-(1-Cyclohexanecarbonyl-1,2,3,4-tetrahydroquinolin-2-ylmethyl)-2-(8-quinolyloxy)ethylmethylamine], the figure is 3.9 nM.
